In ChEMBL document CHEMBL1201862, “PubChem BioAssay data set” (2004):
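96-well plates; 48 h exposure; 5 concentrations. Endpoints by linear interpolation between flanking doses. Not reached: highest tested concentration assigned. GI50 = concentration required for 50% inhibition of growth.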 The source made the active and inactive calls. Rule as the data show it: active = GI50 up to about 1.1 µM and inactive = higher.

Tests used:
Experiment in all cases: growth of human tumour cells (NCI), 48 h
[1] = tested on: DLD-1
[2] = tested on: M19-MEL
[3] = tested on: LXFL 529
[4] = tested on: DMS-273
[5] = tested on: HOP-18
[6] = tested on: DMS-114
[7] = tested on: RXF 631
[8] = tested on: XF498
[9] = tested on: KM-20L2

SMILES: COc1ccc(C2S/C(=C\c3ccccc3)C(=O)N2NC(=O)Cc2ccccc2)cc1 (stereo not given)
- GI50 [1]: > 100 µM (inactive)
- GI50 [2]: > 100 µM (inactive)
- GI50 [3]: > 100 µM (inactive)
- GI50 [4]: > 100 µM (inactive)
- GI50 [5]: > 100 µM (inactive)

SMILES: Nc1ccc(C(c2ccccc2)(c2ccccc2)c2ccccc2)cc1
- GI50 [1]: 95.9 µM (inactive)
- GI50 [6]: 64 µM (inactive)
- GI50 [7]: 47 µM (inactive)
- GI50 [2]: 55.8 µM (inactive)
- GI50 [8]: 4.24 µM (inactive)
- GI50 [3]: 37.1 µM (inactive)
- GI50 [4]: 50.1 µM (inactive)

SMILES: CCOC(=O)c1nn2c(nc1=O)sc1ccc3ccccc3c12
- GI50 [1]: > 100 µM (inactive)
- GI50 [6]: > 100 µM (inactive)
- GI50 [9]: > 100 µM (inactive)
- GI50 [2]: > 100 µM (inactive)
- GI50 [3]: > 100 µM (inactive)
- GI50 [4]: > 100 µM (inactive)
- GI50 [5]: > 100 µM (inactive)

SMILES: Cc1cc(C)nc(NS(=O)(=O)c2ccc(NC(=O)c3cccc4c(Nc5ccc(S(=O)(=O)N=C(N)N)cc5)c5ccc(Cl)cc5nc34)cc2)n1
- GI50 [1]: 17.7 µM (inactive)
- GI50 [6]: 45.7 µM (inactive)
- GI50 [7]: 28.6 µM (inactive)
- GI50 [9]: 59 µM (inactive)
- GI50 [2]: 53.7 µM (inactive)
- GI50 [8]: > 100 µM (inactive)
- GI50 [3]: 27.6 µM (inactive)

SMILES: COc1ccc2c(c1)CN1CCc3c(cc(OC)c(OC)c3OC)C1C2 (stereo not given)
- GI50 [1]: > 100 µM (inactive)
- GI50 [6]: 58.5 µM (inactive)
- GI50 [9]: > 100 µM (inactive)
- GI50 [2]: > 100 µM (inactive)
- GI50 [8]: 38.7 µM (inactive)
- GI50 [3]: 39.4 µM (inactive)
- GI50 [4]: > 100 µM (inactive)
- GI50 [5]: > 100 µM (inactive)

SMILES: Cc1cccc(C(C)(C)C)c1NC(=O)CC1C(=O)Nc2ccccc2S1(=O)=O (stereo not given)
- GI50 [1]: 5.5 µM (inactive)
- GI50 [9]: 9.29 µM (inactive)
- GI50 [2]: 12.4 µM (inactive)
- GI50 [8]: 11.1 µM (inactive)
- GI50 [3]: 12 µM (inactive)
- GI50 [4]: 4.25 µM (inactive)

SMILES: CC(=O)OC(C)(C)/C=C/C(=O)[C@](C)(O)[C@H]1[C@H](O)C[C@@]2(C)[C@@H]3CC=C4[C@@H](C[C@H](O)[C@H](O)C4(C)C)[C@]3(C)C(=O)C[C@]12C
- GI50 [1]: 0.274 µM (active)
- GI50 [6]: 0.324 µM (active)
- GI50 [7]: 0.679 µM (active)
- GI50 [9]: 0.513 µM (active)
- GI50 [2]: 0.515 µM (active)
- GI50 [8]: 0.422 µM (active)
- GI50 [3]: 0.347 µM (active)
- GI50 [4]: 0.421 µM (active)
- GI50 [5]: 1.05 µM (active)

SMILES: COc1cc(C2c3cc4c(cc3[C@H](NC(=O)c3cccs3)C3COC(=O)[C@H]23)OCO4)cc(OC)c1OC (stereo not given in full)
- GI50 [1]: 0.0297 µM (active)
- GI50 [6]: 0.0113 µM (active)
- GI50 [9]: 0.0199 µM (active)
- GI50 [3]: 0.0296 µM (active)
- GI50 [4]: 0.0188 µM (active)
- GI50 [5]: > 100 µM (inactive)
